Measured values published in patent EP0305646B1, “3-Hydroxypyrid-4-ones and pharmaceutical compositions” (BRITISH TECHNOLOGY GROUP LIMITED, priority 1983, dated 1984).
Read-outs that look alike come from different tables or passages of the source.

Legend:
[1] = Affinity for iron (III) expressed as log Ksol; format: physicochemical; settings: > 6.0 needed to remove iron from transferrin
Text: In order to solubilise iron (III) hydroxide, log Ksol must be greater than 0 and in order to remove iron from transferrin, log Ksol should be in excess of 6.0. The log Ksol values for 1,2-dimethyl-3-hydroxypyrid-4-one, by way of example, is 9.5, thus comparing favourably with those of the bidentate hydroxamates at about 4.0, of catechols at about 8.0, of desferrioxamine at 6.0, and of diethylenetriamine penta-acetic acid (DTPA) at 2.0. Moreover, the ability of the compounds to remove iron efficiently has been confirmed both by in vitro test and also by in vivo tests in mice. It is particularly significant that these latter tests are successful whether the compound is given intraperitoneally or orally by stomach tube, the compounds generally either being stable under acidic conditions or being converted thereby to acid stable active compounds.

Horse spleen ferritin [2] = target: T1, Horse spleen ferritin (Equus caballus, UniProt P02791+Q8MIP0); assay: Mobilisation of iron from ferritin (dialysis against a pyridone solution); format: biochemical; settings: ferritin 10^-6 M, pH 7.4, 3 x 10^-3 M pyridone
T1 construct: Horse spleen ferritin (Sigma) was used without further purification; purchased Sigma; host or cells: horse spleen (tissue-derived)
Description: Horse spleen ferritin (Sigma) was used without further purification and its iron content was estimated spectrophotometrically at 420 nm. The ferritin solution in phosphate buffered saline (Dulbecco-OXOID, 10^-6 M, pH 7.4) was enclosed in a Visking dialysis tube and dialysed against a 3 x 10^-3 M buffered solution of one of various pyridones as indicated in Table 2. The absorption spectrum of the resulting iron (III) complex in the dialysis solution was recorded after 6 and 24 hours. For comparative purposes, the procedure was repeated using a blank control.
The results are shown in Table 2 where the percentage of ferritin-bound iron removed by the compound under test is shown. For comparative purposes, results reported in the literature for similar tests with 1 x 10^-3 M desferrioxamine (Crichton et al., J. Inorganic Biochem., 1980, 13, 305) and with 6 x 10^-3 M LICAMS (Tufano et al., Biochem. Biophys. Acta, 1981, 668, 420) are also given in the Table. It will be seen that the pyridone compounds are able to remove iron effectively from ferritin in contrast with desferrioxamine and LICAMS (although the latter will remove iron in the presence of ascorbic acid such a mixture is very difficult to manage clinically). […]

Human transferrin = target: T2, Human transferrin (Homo sapiens, UniProt P02787); assay: Mobilisation of iron from 59Fe-loaded transferrin; format: biochemical; settings: 59Fe transferrin 10^-5 M, compound 4 x 10^-3 M in tris HCl (0.1 M, pH 7.4); for Percentage of iron removed 4 hours: incubation 4 hours; for Percentage of iron removed 18 hours: incubation 18 hours
T2 construct: purchased Sigma
Description: Human transferrin (Sigma) was loaded with iron (III) by the method of Bates and Schlaback. J. Biol. Chem. (1973) 248, 3228. ^59Iron (III) transferrin (10^-5 M) was incubated with a 4 x 10^-3 M solution in tris HCl (0.1 M, pH 7.4) of one of various pyridones as indicated in Table 3 for periods of 4 hours and 18 hours. The solution was then dialysed against phosphate buffered saline for 24 hours. The ^59Fe remaining in the dialysis tube was then recorded. For comparative purposes, this procedure was repeated with desferrioxamine using incubation for both 4 hours and 18 hours and with EDTA using incubation for 4 hours only.
The results are shown in Table 3 in terms of the percentage of transferrin bound iron removed by the compound under test. It will be seen that the pyrid-4-one compounds are very effective at iron removal, as compared with desferrioxamine or EDTA, after only 4 hours.

Mice = assay: In vivo iron binding capacity: excretion of 59Fe in iron dextran loaded mice; settings: 10 mg per mouse, control = 100%
Description: Mice were injected intraperitoneally with iron dextran (2 mg) at weekly intervals over a four week period. Two weeks after the final injection, the mice were injected via the tail vein with ^59Fe lactoferrin (human lactoferrin, 1 mg per injection 2 µCi). The mice were then caged individually. After a ten day period, 1-acetyl-3-hydroxypyrid-2-one was administered to groups of 8 mice at 10 mg per mouse either intraperitoneally or intragastrically (in each case 3 of the mice received only one dose whilst 5 received 2 doses at a 24 hour interval). The excretion of iron was recorded at either 12 or 24 hourly intervals over a three day period before and a two day period after administration of the compound. For comparative purposes, the procedure was repeated with a blank control and with desferrioxamine, also at 10 mg per mouse (the intraperitoneally treated mice receiving one dose of desferrioxamine and the intragastrically treated mice two doses at a 24 hour interval).
The results are shown in Table 4, being given on the basis of the control representing 100% excretion, and illustrate the particular advantage of the pyridones as compared with desferrioxamine for oral administration the levels of iron excreted on intragastric administration being higher for all the pyridones tested than for desferroxamine. […] However, this is not the case here, the large SD values being a consequence of the large range among the positive responses.

[3] = Partition coefficient Kpart between n-octanol and aqueous tris hydrochloride, by spectrophotometry; settings: n-octanol / tris hcl, pH 7.4
Description: The partition coefficient Kpart being the ratio (concentration of compound in n-octanol)/)concentration of compound in aqueous phase) on partition between n-octanol and aqueous tris hydrochloride (20 mM, pH 7.4), is measured by spectrophotometry at 20°C for various of the compounds of the previous Examples and for their 3:1 iron(III) complexes at (10^-4M by spectrophotometry. The solutions of the complexes are either produced by dissolving the pre-formed complex in the aqueous tris hydrochloride or are prepared in situ in the buffer by the admixture of a 3:1 molar ratio of the pyridone and ferric chloride, the pH thereafter being readjusted to 7.4 if necessary (the same product will be obtained in the buffer solution irrespective of whether the pyridone used is in a salt form or not). Acid washed glassware is used throughout and, following mixing of 5 ml of the 10^-4M aqueous solution with 5 ml n-octanol for 1 minute, the aqueous n-octanol mixture is centrifuged at 1,000 g for 30 seconds. The two resulting phases are separated for a concentration determination by spectrophotometry on each. For the free hydroxypyridones, the range 220-240 nm is used for concentration determinations whilst for the iron complexes, the range 340-360 nm is used.

Horse spleen ferritin [4] = target: T1, Horse spleen ferritin; settings: cited from earlier work

T1 sequence (P02791 2-175 limits assumed): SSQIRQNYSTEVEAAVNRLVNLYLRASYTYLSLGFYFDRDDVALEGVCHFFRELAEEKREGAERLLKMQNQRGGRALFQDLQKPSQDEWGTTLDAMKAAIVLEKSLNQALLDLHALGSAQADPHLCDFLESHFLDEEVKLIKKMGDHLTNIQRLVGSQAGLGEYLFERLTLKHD
T1 sequence (Q8MIP0 whole entry): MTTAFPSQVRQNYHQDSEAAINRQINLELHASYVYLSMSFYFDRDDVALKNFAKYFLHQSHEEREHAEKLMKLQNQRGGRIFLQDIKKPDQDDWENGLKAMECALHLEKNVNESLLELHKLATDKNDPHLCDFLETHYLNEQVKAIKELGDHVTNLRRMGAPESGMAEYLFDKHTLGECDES
T2 sequence (P02787 20-698): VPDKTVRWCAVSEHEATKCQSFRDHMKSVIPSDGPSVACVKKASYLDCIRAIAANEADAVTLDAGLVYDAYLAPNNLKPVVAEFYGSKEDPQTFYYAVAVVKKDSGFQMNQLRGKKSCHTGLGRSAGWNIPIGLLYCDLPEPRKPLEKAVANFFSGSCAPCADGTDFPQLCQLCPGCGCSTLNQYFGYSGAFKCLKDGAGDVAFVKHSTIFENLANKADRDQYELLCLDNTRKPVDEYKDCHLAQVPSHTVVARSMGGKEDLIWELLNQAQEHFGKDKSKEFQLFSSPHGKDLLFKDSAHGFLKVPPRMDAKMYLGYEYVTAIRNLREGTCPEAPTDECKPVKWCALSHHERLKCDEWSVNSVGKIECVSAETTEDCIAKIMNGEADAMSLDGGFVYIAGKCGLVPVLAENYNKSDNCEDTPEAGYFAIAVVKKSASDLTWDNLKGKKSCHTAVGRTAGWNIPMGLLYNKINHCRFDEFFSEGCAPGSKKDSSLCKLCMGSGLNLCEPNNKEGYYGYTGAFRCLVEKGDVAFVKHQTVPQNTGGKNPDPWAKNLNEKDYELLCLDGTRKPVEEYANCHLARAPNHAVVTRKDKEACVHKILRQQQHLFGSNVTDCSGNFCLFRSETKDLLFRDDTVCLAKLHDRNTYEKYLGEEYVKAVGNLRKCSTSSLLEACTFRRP

Percentage of iron removed 6 hours (Horse spleen ferritin [2]) [%]	Percentage of iron removed 24 hours (Horse spleen ferritin [2]) [%]	Percentage of iron removed 4 hours (Human transferrin) [%]	Percentage of iron removed 18 hours (Human transferrin) [%]	SMILES	log Ksol [1]	Excretion of ^59Fe±SD percent (Mice; Intraperitoneal Administration) [%]	other results
				Cc1c(O)c(=O)ccn1C [1,2-dimethyl-3-hydroxypyrid-4-one]	9.5		
31	49	94	96	Cc1c(O)c(=O)ccn1CCO [3-hydroxy-1-(2'-hydroxyethyl)-2-methylpyrid-4-one]		170 ± 49	
22	45			COC(=O)CCn1ccc(=O)c(O)c1C [3-hydroxy-1-(2'-methoxycarbonylethyl)-2-methylpyrid-4-one]			
				Cc1c(O)c(=O)ccn1CCCCCO [3-hydroxy-1-(5'-hydroxypentyl)-2-methylpyrid-4-one]		149 ± 59	Excretion of ^59Fe±SD percent (Mice; Intragastric Administration): 111 ± 22%
25	49	93	97	Cn1cc(O)c(=O)cc1CO [3-hydroxy-6-hydroxymethyl-1-methylpyrid-4-one]			logD [3]: -1.52
				O=C(O)CN(CCN(CC(=O)O)CC(=O)O)CCN(CC(=O)O)CC(=O)O [DTPA, diethylenetriamine penta-acetic acid]	2.0		
		17	22	CC(=O)N(O)CCCCCNC(=O)CCC(=O)N(O)CCCCCNC(=O)CCC(=O)N(O)CCCCCN [Desferrioxamine, reference compound]	6.0	414 ± 100	Excretion of ^59Fe±SD percent (Mice; Intragastric Administration): 88 ± 17%; Percentage of iron removed 6 hours (Horse spleen ferritin [4]; 1 mM desferrioxamine, literature (Crichton et al.)): 1.5%
				O=C(NCCCCN(CCCNC(=O)c1cc(S(=O)(=O)O)cc(O)c1O)C(=O)c1cc(S(=O)(=O)O)cc(O)c1O)c1cc(S(=O)(=O)O)cc(O)c1O [LICAMS]			Percentage of iron removed 6 hours (Horse spleen ferritin [4]; 6 mM LICAMS + 12 mM ascorbic acid, literature (Tufano et al.)): 7%; Percentage of iron removed 6 hours (Horse spleen ferritin [4]; 6 mM LICAMS, literature (Tufano et al.)): 0%

SMILES	Percentage of iron removed 6 hours (Horse spleen ferritin [2]) [%]	Percentage of iron removed 24 hours (Horse spleen ferritin [2]) [%]	Percentage of iron removed 4 hours (Human transferrin) [%]	Percentage of iron removed 18 hours (Human transferrin) [%]	log Ksol [1]	Excretion of ^59Fe±SD percent (Mice; Intraperitoneal Administration) [%]	other results
O=C(O)CN(CCN(CC(=O)O)CC(=O)O)CC(=O)O [EDTA, ethylenediamine tetra-acetic acid, reference compound]			27	67			
